{"source": "ChEMBL document CHEMBL4308841", "about": "“Synthesis, in vitro antiproliferative activity, and kinase inhibitory effects of pyrazole-containing diarylureas and diarylamides” (Eur J Med Chem, 2018)"}
{"test_system": "SNB-75", "assay": "Growth inhibition of human SNB75 cells assessed as cell growth at 0.1 uM incubated for 48 hrs by sulforhodamine B assay relative to control", "format": "functional", "settings": "SNB-75, 48 h, read-out: Activity", "units": {"growth at 0.1 µM": "%"}}
{"smiles": "COc1cc(Cl)cc(-c2nn(-c3cccc(NC(=O)Nc4ccc(Cl)c(C(F)(F)F)c4)c3)cc2-c2ccncc2)c1", "growth at 0.1 µM": 52}
{"test_system": "IGROV-1", "assay": "Growth inhibition of human IGROV1 cells assessed as cell growth at 100 uM incubated for 48 hrs by sulforhodamine B assay relative to control", "format": "functional", "settings": "IGROV-1, 48 h, read-out: Activity", "units": {"growth at 100 µM": "%"}}
{"smiles": "COc1cc(Cl)cc(-c2nn(-c3cccc(NC(=O)Nc4ccc(Cl)c(C(F)(F)F)c4)c3)cc2-c2ccncc2)c1", "growth at 100 µM": -16}
{"test_system": "MDA-MB-468", "assay": "Growth inhibition of human MDA-MB-468 cells assessed as cell growth at 0.1 uM incubated for 48 hrs by sulforhodamine B assay relative to control", "format": "functional", "settings": "MDA-MB-468, 48 h, read-out: Activity", "units": {"growth at 0.1 µM": "%"}}
{"smiles": "COc1cc(Cl)cc(-c2nn(-c3cccc(NC(=O)Nc4ccc(Cl)c(C(F)(F)F)c4)c3)cc2-c2ccncc2)c1", "growth at 0.1 µM": 91}
{"test_system": "OVCAR-3", "assay": "Growth inhibition of human OVCAR3 cells assessed as cell growth at 0.01 uM incubated for 48 hrs by sulforhodamine B assay relative to control", "format": "functional", "settings": "OVCAR-3, 48 h, read-out: Activity", "units": {"growth at 0.01 µM": "%"}}
{"smiles": "COc1cc(Cl)cc(-c2nn(-c3cccc(NC(=O)Nc4ccc(Cl)c(C(F)(F)F)c4)c3)cc2-c2ccncc2)c1", "growth at 0.01 µM": 91}
{"test_system": "OVCAR-4", "assay": "Growth inhibition of human OVCAR4 cells assessed as cell growth at 1 uM incubated for 48 hrs by sulforhodamine B assay relative to control", "format": "functional", "settings": "OVCAR-4, 48 h, read-out: Activity", "units": {"growth at 1 µM": "%"}}
{"smiles": "COc1cc(Cl)cc(-c2nn(-c3cccc(NC(=O)Nc4ccc(Cl)c(C(F)(F)F)c4)c3)cc2-c2ccncc2)c1", "growth at 1 µM": 62}
{"test_system": "Malme-3M", "assay": "Growth inhibition of human MALME-3M cells assessed as cell growth at 0.01 uM incubated for 48 hrs by sulforhodamine B assay relative to control", "format": "functional", "settings": "read-out: Activity", "units": {"growth at 0.01 µM": "%"}}
{"smiles": "COc1cc(Cl)cc(-c2nn(-c3cccc(NC(=O)Nc4ccc(Cl)c(C(F)(F)F)c4)c3)cc2-c2ccncc2)c1", "growth at 0.01 µM": 94}
{"test_system": "SK-MEL-28", "assay": "Growth inhibition of human SK-MEL-28 cells assessed as cell growth at 0.1 uM incubated for 48 hrs by sulforhodamine B assay relative to control", "format": "functional", "settings": "SK-MEL-28, 48 h, read-out: Activity", "units": {"growth at 0.1 µM": "%"}}
{"smiles": "COc1cc(Cl)cc(-c2nn(-c3cccc(NC(=O)Nc4ccc(Cl)c(C(F)(F)F)c4)c3)cc2-c2ccncc2)c1", "growth at 0.1 µM": 106}
{"test_system": "SK-OV-3", "assay": "Growth inhibition of human SKOV3 cells assessed as cell growth at 0.1 uM incubated for 48 hrs by sulforhodamine B assay relative to control", "format": "functional", "settings": "SK-OV-3, 48 h, read-out: Activity", "units": {"growth at 0.1 µM": "%"}}
{"smiles": "COc1cc(Cl)cc(-c2nn(-c3cccc(NC(=O)Nc4ccc(Cl)c(C(F)(F)F)c4)c3)cc2-c2ccncc2)c1", "growth at 0.1 µM": 100}
{"test_system": "HCC 2998", "assay": "Growth inhibition of human HCC2998 cells assessed as cell growth at 1 uM incubated for 48 hrs by sulforhodamine B assay relative to control", "format": "functional", "settings": "HCC 2998, 48 h, read-out: Activity", "units": {"growth at 1 µM": "%"}}
{"smiles": "COc1cc(Cl)cc(-c2nn(-c3cccc(NC(=O)Nc4ccc(Cl)c(C(F)(F)F)c4)c3)cc2-c2ccncc2)c1", "growth at 1 µM": 97}
{"test_system": "SK-MEL-2", "assay": "(§1) Growth inhibition of human SK-MEL-2 cells incubated for 48 hrs by sulforhodamine B assay", "format": "functional, cell-based", "settings": "SK-MEL-2, 48 h, read-out: GI50", "units": {"GI50": "µM"}}
{"smiles": "COc1cc(Cl)cc(-c2nn(-c3cccc(NC(=O)Nc4ccc(Cl)c(C(F)(F)F)c4)c3)cc2-c2ccncc2)c1", "GI50": 1.79}
{"test_system": "SK-MEL-2", "assay": "as §1", "format": "functional, cell-based", "settings": "SK-MEL-2, 48 h, read-out: LC50 (the source's name)", "units": {"CC50": "µM"}}
{"smiles": "COc1cc(Cl)cc(-c2nn(-c3cccc(NC(=O)Nc4ccc(Cl)c(C(F)(F)F)c4)c3)cc2-c2ccncc2)c1", "CC50": 9.59}
{"test_system": "SK-MEL-2", "assay": "as §1", "format": "functional, cell-based", "settings": "SK-MEL-2, 48 h, read-out: TGI", "units": {"TGI": "µM"}}
{"smiles": "COc1cc(Cl)cc(-c2nn(-c3cccc(NC(=O)Nc4ccc(Cl)c(C(F)(F)F)c4)c3)cc2-c2ccncc2)c1", "TGI": 42.1}
{"test_system": "SK-MEL-2", "assay": "as §1", "format": "functional, cell-based", "settings": "SK-MEL-2, 48 h, read-out: pGI50 (converted)", "units": {"GI50": "µM"}}
{"smiles": "COc1cc(Cl)cc(-c2nn(-c3cccc(NC(=O)Nc4ccc(Cl)c(C(F)(F)F)c4)c3)cc2-c2ccncc2)c1", "GI50": 1.78}
{"test_system": "SK-MEL-2", "assay": "as §1", "format": "functional, cell-based", "settings": "SK-MEL-2, 48 h, read-out: pLC50 (the source's name) (converted)", "units": {"CC50": "µM"}}
{"smiles": "COc1cc(Cl)cc(-c2nn(-c3cccc(NC(=O)Nc4ccc(Cl)c(C(F)(F)F)c4)c3)cc2-c2ccncc2)c1", "CC50": 10}
{"test_system": "SK-MEL-2", "assay": "as §1", "format": "functional, cell-based", "settings": "SK-MEL-2, 48 h, read-out: pTGI (converted)", "units": {"TGI": "µM"}}
{"smiles": "COc1cc(Cl)cc(-c2nn(-c3cccc(NC(=O)Nc4ccc(Cl)c(C(F)(F)F)c4)c3)cc2-c2ccncc2)c1", "TGI": 4.37}
{"test_system": "SK-MEL-28", "assay": "(§2) Growth inhibition of human SK-MEL-28 cells incubated for 48 hrs by sulforhodamine B assay", "format": "functional, cell-based", "settings": "SK-MEL-28, 48 h, read-out: GI50", "units": {"GI50": "µM"}}
{"smiles": "COc1cc(Cl)cc(-c2nn(-c3cccc(NC(=O)Nc4ccc(Cl)c(C(F)(F)F)c4)c3)cc2-c2ccncc2)c1", "GI50": 2.41}
{"test_system": "SK-MEL-28", "assay": "as §2", "format": "functional, cell-based", "settings": "SK-MEL-28, 48 h, read-out: LC50 (the source's name)", "units": {"CC50": "µM"}}
{"smiles": "COc1cc(Cl)cc(-c2nn(-c3cccc(NC(=O)Nc4ccc(Cl)c(C(F)(F)F)c4)c3)cc2-c2ccncc2)c1", "CC50": 5.41}
{"test_system": "SK-MEL-28", "assay": "as §2", "format": "functional, cell-based", "settings": "SK-MEL-28, 48 h, read-out: TGI", "units": {"TGI": "µM"}}
{"smiles": "COc1cc(Cl)cc(-c2nn(-c3cccc(NC(=O)Nc4ccc(Cl)c(C(F)(F)F)c4)c3)cc2-c2ccncc2)c1", "TGI": 84.1}
{"test_system": "SK-MEL-28", "assay": "as §2", "format": "functional, cell-based", "settings": "SK-MEL-28, 48 h, read-out: pGI50 (converted)", "units": {"GI50": "µM"}}
{"smiles": "COc1cc(Cl)cc(-c2nn(-c3cccc(NC(=O)Nc4ccc(Cl)c(C(F)(F)F)c4)c3)cc2-c2ccncc2)c1", "GI50": 2.4}
{"test_system": "SK-MEL-28", "assay": "as §2", "format": "functional, cell-based", "settings": "SK-MEL-28, 48 h, read-out: pLC50 (the source's name) (converted)", "units": {"CC50": "µM"}}
{"smiles": "COc1cc(Cl)cc(-c2nn(-c3cccc(NC(=O)Nc4ccc(Cl)c(C(F)(F)F)c4)c3)cc2-c2ccncc2)c1", "CC50": 53.7}
{"test_system": "SK-MEL-28", "assay": "as §2", "format": "functional, cell-based", "settings": "SK-MEL-28, 48 h, read-out: pTGI (converted)", "units": {"TGI": "µM"}}
{"smiles": "COc1cc(Cl)cc(-c2nn(-c3cccc(NC(=O)Nc4ccc(Cl)c(C(F)(F)F)c4)c3)cc2-c2ccncc2)c1", "TGI": 4.17}
{"test_system": "ACHN", "assay": "Growth inhibition of human ACHN cells assessed as cell growth at 0.01 uM incubated for 48 hrs by sulforhodamine B assay relative to control", "format": "functional", "settings": "read-out: Activity", "units": {"growth at 0.01 µM": "%"}}
{"smiles": "COc1cc(Cl)cc(-c2nn(-c3cccc(NC(=O)Nc4ccc(Cl)c(C(F)(F)F)c4)c3)cc2-c2ccncc2)c1", "growth at 0.01 µM": 91}
{"test_system": "786-0", "assay": "Growth inhibition of human 786-0 cells assessed as cell growth at 0.01 uM incubated for 48 hrs by sulforhodamine B assay relative to control", "format": "functional", "settings": "786-0, 48 h, read-out: Activity", "units": {"growth at 0.01 µM": "%"}}
{"smiles": "COc1cc(Cl)cc(-c2nn(-c3cccc(NC(=O)Nc4ccc(Cl)c(C(F)(F)F)c4)c3)cc2-c2ccncc2)c1", "growth at 0.01 µM": 96}
{"test_system": "NCI-H226", "assay": "(§3) Growth inhibition of human NCI-H226 cells incubated for 48 hrs by sulforhodamine B assay", "format": "functional, cell-based", "settings": "NCI-H226, 48 h, read-out: GI50", "units": {"GI50": "µM"}}
{"smiles": "COc1cc(Cl)cc(-c2nn(-c3cccc(NC(=O)Nc4ccc(Cl)c(C(F)(F)F)c4)c3)cc2-c2ccncc2)c1", "GI50": 2.5}
{"test_system": "NCI-H226", "assay": "as §3", "format": "functional, cell-based", "settings": "NCI-H226, 48 h, read-out: LC50", "units": {"LC50": "µM"}}
{"smiles": "COc1cc(Cl)cc(-c2nn(-c3cccc(NC(=O)Nc4ccc(Cl)c(C(F)(F)F)c4)c3)cc2-c2ccncc2)c1", "LC50": "> 100"}
{"test_system": "NCI-H226", "assay": "as §3", "format": "functional, cell-based", "settings": "NCI-H226, 48 h, read-out: TGI", "units": {"TGI": "µM"}}
{"smiles": "COc1cc(Cl)cc(-c2nn(-c3cccc(NC(=O)Nc4ccc(Cl)c(C(F)(F)F)c4)c3)cc2-c2ccncc2)c1", "TGI": 14.7}
{"test_system": "NCI-H226", "assay": "as §3", "format": "functional, cell-based", "settings": "NCI-H226, 48 h, read-out: pGI50 (converted)", "units": {"GI50": "µM"}}
{"smiles": "COc1cc(Cl)cc(-c2nn(-c3cccc(NC(=O)Nc4ccc(Cl)c(C(F)(F)F)c4)c3)cc2-c2ccncc2)c1", "GI50": 2.51}
{"test_system": "NCI-H226", "assay": "as §3", "format": "functional, cell-based", "settings": "NCI-H226, 48 h, read-out: pLC50 (converted)", "units": {"LC50": "µM"}}
{"smiles": "COc1cc(Cl)cc(-c2nn(-c3cccc(NC(=O)Nc4ccc(Cl)c(C(F)(F)F)c4)c3)cc2-c2ccncc2)c1", "LC50": "> 100"}
{"test_system": "NCI-H226", "assay": "as §3", "format": "functional, cell-based", "settings": "NCI-H226, 48 h, read-out: pTGI (converted)", "units": {"TGI": "µM"}}
{"smiles": "COc1cc(Cl)cc(-c2nn(-c3cccc(NC(=O)Nc4ccc(Cl)c(C(F)(F)F)c4)c3)cc2-c2ccncc2)c1", "TGI": 14.8}
{"test_system": "COLO 205", "assay": "Growth inhibition of human COLO205 cells assessed as cell growth at 1 uM incubated for 48 hrs by sulforhodamine B assay relative to control", "format": "functional", "settings": "COLO 205, 48 h, read-out: Activity", "units": {"growth at 1 µM": "%"}}
{"smiles": "COc1cc(Cl)cc(-c2nn(-c3cccc(NC(=O)Nc4ccc(Cl)c(C(F)(F)F)c4)c3)cc2-c2ccncc2)c1", "growth at 1 µM": 80}
